# Assay results from ChEMBL document CHEMBL4316594, “An overview of grayanane diterpenoids and their biological activities from the Ericaceae family in the last seven years” (Eur J Med Chem, 2019).
# pIC50: −log10 of the molar value.
# How the values were obtained:
# [1] = test system: Coxsackievirus B3; test: Antiviral activity against Coxsackievirus B3 infected in African green monkey Vero cells; format: functional, organism-based; conditions: Enterovirus B
# [2] = test system: Mus musculus; test: Antinociceptive activity in Kunming mouse model assessed as inhibition of acetic acid-induced writhes at 0.08 mg/kg, ip pretreated for 30 mins followed by acetic acid challenge and measured for 30 mins post acetic acid challenge relative to control; format: functional
# [3] = biological target: T1, Tyrosine-protein phosphatase non-receptor type 1 (Homo sapiens, UniProt P18031); test: Inhibition of recombinant human PTP1B expressed in Escherichia coli using pNPP as substrate preincubated for 10 mins followed by substrate addition for 30 mins and measured at 5 mins interval for 30 mins
# T1 sequence (P18031 whole entry): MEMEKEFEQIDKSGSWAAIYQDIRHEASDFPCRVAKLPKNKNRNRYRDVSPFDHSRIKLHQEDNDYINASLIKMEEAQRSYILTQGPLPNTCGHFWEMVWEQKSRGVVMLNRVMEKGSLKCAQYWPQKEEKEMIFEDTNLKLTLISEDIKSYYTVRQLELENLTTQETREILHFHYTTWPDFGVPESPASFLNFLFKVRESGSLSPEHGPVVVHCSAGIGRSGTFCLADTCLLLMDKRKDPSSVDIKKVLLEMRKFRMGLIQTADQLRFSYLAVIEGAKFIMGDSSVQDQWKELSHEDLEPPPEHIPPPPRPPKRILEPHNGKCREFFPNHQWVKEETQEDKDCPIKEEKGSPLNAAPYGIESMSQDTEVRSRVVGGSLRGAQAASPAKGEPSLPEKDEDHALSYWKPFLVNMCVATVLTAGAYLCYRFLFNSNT
# [4] = test system: Mus musculus; test: Antinociceptive activity in ip dosed Kunming mouse model assessed as inhibition of acetic acid-induced writhes pretreated for 15 mins followed by acetic acid challenge and measured for 20 mins post acetic acid challenge; format: functional; conditions: read-out: ID50 (the source's name)
# [5] = test system: Mus musculus; test: Antinociceptive activity in Kunming mouse model assessed as inhibition of acetic acid-induced writhes at 5 mg/kg, ip pretreated for 15 mins followed by acetic acid challenge and measured for 20 mins post acetic acid challenge relative to control; format: functional
# [6] = biological target: T1, Tyrosine-protein phosphatase non-receptor type 1; test: Inhibition of recombinant PTP1B catalytic domain (unknown origin) using pNPP as substrate
# [7] = test system: Pieris brassicae; test: Antifeedant activity in Pieris brassicae measured 24 hrs post leaf feeding by leaf disc method; format: functional, organism-based
# [8] = test system: Influenza A virus; test: Antiviral activity against Influenza A virus (A/Hanfang/359/95(H3N2)) infected in MDCK cells assessed as reduction in virus-induced cytopathogenicity; format: functional, organism-based
# [9] = biological target: T1, Tyrosine-protein phosphatase non-receptor type 1; test: Inhibition of recombinant human PTP1B expressed in Escherichia coli using pNPP as substrate preincubated for 30 mins followed by substrate addition for 45 mins and measured at 5 mins interval for 30 mins
# [10] = test system: Mus musculus; test: Antinociceptive activity in Kunming mouse model assessed as inhibition of acetic acid-induced writhes at 10 mg/kg, ip pretreated for 15 mins followed by acetic acid challenge and measured for 20 mins post acetic acid challenge relative to control; format: functional
compound,measurement,setting,value
CC(=O)[C@@H]1C[C@@H](O)[C@H]2[C@@H](O)[C@@]1(C[C@H]1OC(=O)C(C)(C)[C@]1(O)CCO)C[C@@]2(C)O,pIC50,[1],4.56
CO[C@H]1[C@H](O)C(C)(C)[C@@]2(O)[C@H](O)[C@@H](O)[C@]34C[C@@](C)(O)[C@H](CC[C@H]3[C@@](C)(O)[C@H]12)[C@H]4O,inhibition in vivo at 0.08 mg/kg,[2],56.8%
CO[C@@H]1O[C@H]2O[C@@H]3C[C@]45C[C@@](C)(O)[C@H](CC[C@H]4[C@@](C)(O3)[C@H]2CC1(C)C)[C@H]5O,pIC50,[3],4.37
CC(C)(O)[C@]12OC(=O)C[C@H]1[C@](C)(O)[C@@H]1CC[C@@H]3[C@@H](O)[C@@]1([C@H](O)[C@H]2O)[C@@H](O)[C@@]3(C)O,ED50,[4],1.24 mg/kg
same,inhibition in vivo at 5 mg/kg,[5],63.5%
C=C1[C@H]2C[C@H](O)C(C)(C)[C@@]2(O)[C@H](O)C[C@]23C[C@@](C)(O)[C@H](CC[C@@H]12)[C@H]3O,pIC50,[6],4.61
CCC(=O)O[C@@H]1[C@@H](OC(C)=O)[C@@]2([C@](C)(O)CCl)OC(=O)C[C@H]2[C@](C)(O)[C@@H]2CC[C@@H]3[C@@H](OC(C)=O)[C@]12[C@@H](OC(C)=O)[C@@]3(C)OC(C)=O,EC50,[7],10.07 microg/cm2
C=C1[C@H]2C[C@H](O)C(C)(C)[C@@]2(O)[C@H](O)C[C@]23C=C(C)[C@H](CC[C@@H]12)[C@H]3O,pIC50,[6],5.50
CC1(C)[C@H]2O[C@H]2[C@H]2[C@@]3(C)O[C@H](C[C@@]45C=C[C@@H](C[C@H]43)[C@](C)(O)C5)[C@]21C,pIC50,[8],4.72
CO[C@H]1C[C@]23C[C@@](C)(O)[C@H](CC[C@H]2[C@](C)(C2=CO[C@H](OC)C(C)(C)C2=O)O1)[C@H]3O,pIC50,[3],4.78
CC1(C)CCC[C@H](O)[C@@]2(C)[C@@H]3CC[C@@H]4C[C@@]3(C[C@H]2C1=O)C[C@@]4(C)O,inhibition (INH),[7],45%
Cc1cccc(C[C@H]2O[C@]3(C)O[C@@]24[C@@H]([C@@H](O)[C@H](O)C4(C)C)[C@H]3C)c1,pIC50,[9],4.49
CC1(C)[C@@H](O)[C@H](Cl)[C@H]2[C@](C)(O)[C@@H]3CC[C@@H]4[C@@H](O)[C@]3(C[C@@]4(C)O)[C@H](O)[C@@H](O)[C@@]21O,inhibition in vivo at 0.08 mg/kg,[2],49.8%
CCC(=O)O[C@@H]1[C@H]2CC[C@H]3[C@@](C)(O)[C@@H]4CC(=O)O[C@]4([C@](C)(O)CCl)[C@H](OC(C)=O)[C@@H](OC(C)=O)[C@@]13[C@@H](OC(C)=O)[C@@]2(C)OC(C)=O,EC50,[7],5.33 microg/cm2
CC1=C[C@]23C[C@H]1CC[C@H]2[C@]1(C)[C@@H](O)CCCC(C)(C)C(=O)[C@@H]1C3,inhibition (INH),[7],45%
CC1=C[C@@H]2O[C@@]3(C)[C@@H]4C[C@H](O)[C@H]1[C@]24C[C@@H](O)[C@@]1(O)[C@H]3[C@@H]2O[C@@H]2C1(C)C,pIC50,[3],4.61
CC(C)(O)[C@]12OC(=O)C[C@H]1[C@](C)(O)[C@@H]1[C@H](O)C[C@@H]3[C@@H](O)[C@@]1([C@H](O)[C@H]2O)[C@@H](O)[C@@]3(C)O,ED50,[4],0.72 mg/kg
same,inhibition in vivo at 5 mg/kg,[5],69.9%
Cc1cccc(C[C@H]2O[C@]3(C)O[C@@]24[C@@H]([C@@H](O)[C@H](O)C4(C)C)[C@@H]3C)c1,pIC50,[9],4.64
CO[C@@H]1C[C@]23C[C@@](C)(O)[C@H](CC[C@H]2[C@](C)(C2=CO[C@H](OC)C(C)(C)C2=O)O1)[C@H]3O,pIC50,[3],4.70
C[C@]12CC[C@H](O)[C@@]3(C)[C@@H]4CC[C@@H]5C[C@]4(C[C@@]5(C)O)C[C@@]3(OC1=O)C2=O,inhibition (INH),[7],45%
same,inhibition in vivo at 10 mg/kg,[10],45%
CC(O)C(=O)O[C@@H]1[C@H]2CC[C@H]3[C@@](C)(O)[C@@H]4[C@@H]5O[C@@H]5C(C)(C)[C@@]4(O)[C@H](O)C(=O)[C@@]13C[C@@]2(C)O (stereo partly drawn),inhibition in vivo at 0.08 mg/kg,[2],37.6%
